Test results published in US20260042755A1, “GPR6 INVERSE AGONISTS” (MapLight Therapeutics, Inc., priority 2022, published 2026).
pIC50: −log10 of the molar value.

Assays:
GPR6 = target: T1, GPR6 (Homo sapiens, UniProt P46095); test: GPR6 antagonist functional cAMP assay (LANCE Ultra cAMP TR-FRET, CHO cells stably expressing GPR6); format: cell-based
T1 construct: expressed in transfected cells; host or cells: CHO cells
Outline: (§1)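 10,000 cells/well; KRB buffer + 0.1% BSA + 150 μM Ro 20-1724; cpd 45 min, 37 °C, 0.1% DMSO; TR-FRET cAMP, 665 nm; 4-PL fit, normalized to DMSO (0.1%) and reference (100%) → IC50.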

GPR3 = target: T2, GPR3 (Homo sapiens, UniProt P46089); test: GPR3 antagonist functional cAMP assay (LANCE Ultra cAMP TR-FRET, CHO cells stably expressing GPR3); format: cell-based
T2 construct: expressed in transfected cells; host or cells: CHO cells
T2 sequence (P46089 whole entry, species assumed): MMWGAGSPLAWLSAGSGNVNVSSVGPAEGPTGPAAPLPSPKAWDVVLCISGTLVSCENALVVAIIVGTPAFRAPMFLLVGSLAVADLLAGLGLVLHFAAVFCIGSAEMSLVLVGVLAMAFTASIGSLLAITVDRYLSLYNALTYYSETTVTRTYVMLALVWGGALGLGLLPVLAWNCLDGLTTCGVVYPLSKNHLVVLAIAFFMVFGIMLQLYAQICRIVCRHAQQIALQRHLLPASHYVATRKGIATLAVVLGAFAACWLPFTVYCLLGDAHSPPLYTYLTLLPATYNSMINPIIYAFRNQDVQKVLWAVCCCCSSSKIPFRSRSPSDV
Outline: as §1

[1] = CHO cells stably expressing GPR6, cAMP assay
[2] = CHO cells stably expressing GPR3, cAMP assay
[3] = CHO cells stably expressing GPR6, cAMP assay (Example 24)
[4] = CHO cells stably expressing GPR3, cAMP assay (Example 24)
[5] = procedure as described in Example 24

T1 sequence (P46095 whole entry): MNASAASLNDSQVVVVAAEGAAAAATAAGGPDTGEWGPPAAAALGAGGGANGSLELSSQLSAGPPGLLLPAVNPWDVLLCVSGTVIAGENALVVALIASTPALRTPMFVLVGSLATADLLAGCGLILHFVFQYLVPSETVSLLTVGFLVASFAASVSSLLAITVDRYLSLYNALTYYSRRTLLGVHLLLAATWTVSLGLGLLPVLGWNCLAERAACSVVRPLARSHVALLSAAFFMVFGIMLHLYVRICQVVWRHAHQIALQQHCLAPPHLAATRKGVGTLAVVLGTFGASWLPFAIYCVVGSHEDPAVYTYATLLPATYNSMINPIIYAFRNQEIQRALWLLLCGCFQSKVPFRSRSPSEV

In the case of `Nc1cc2nc(-c3cnn(CF)c3)c(N3CCN(Cc4ccc(F)cc4F)CC3)nc2cn1` [Compound 794, 3-{4-[(2,4-difluorophenyl)methyl]-1-piperazinyl}-2-[1-(fluoromethyl)-4-pyrazolyl]-1,4,6-triaza-7-naphthylamine], the pIC50 (GPR6; procedure of Example 24) was 6.00 to 7.00 and the pIC50 (GPR3; procedure of Example 24) was 4.52 to 6.00.

With `CC(C)(O)C(=O)c1cc2nc(-c3cnn(C(F)F)c3)c(N3CCN(Cc4ccc(F)cc4F)CC3)nc2cn1` [Compound 620, 1-{2-[1-(difluoromethyl)-4-pyrazolyl]-3-{4-[(2,4-difluorophenyl)methyl]-1-piperazinyl}-1,4,6-triaza-7-naphthyl}-2-hydroxy-2-methyl-1-propanone] the pIC50 (GPR6; procedure of Example 24) was 6.00 to 7.00 and the pIC50 (GPR3; procedure of Example 24) was 6.00 to 7.00.

Work on `CC(=O)N1CCc2nc(N3CCN(Cc4ccsc4)CC3)c(-c3cnn(C)c3)nc2C1` [Compound 514, 1-[3-(1-methyl-4-pyrazolyl)-2-{4-[(3-thienyl)methyl]-1-piperazinyl}-5,6,7,8-tetrahydro-1,4,6-triaza-6-naphthyl]-1-ethanone] yielded a pIC50 (GPR6; [1]) of 4.52 to 6.00 and a pIC50 (GPR3; [2]) of 4.52 to 6.00.

For `CC(=O)N1CCc2nc(N3CCC(Oc4ccc(F)cc4F)CC3)c(-c3ccccn3)nc2C1` [Compound 79, 1-{2-[4-(2,4-difluorophenoxy)piperidin-1-yl]-3-(pyridin-2-yl)-5H,6H,7H,8H-pyrido[3,4-b]pyrazin-6-yl}ethan-1-one], the pIC50 (GPR6; [3]) was 4.52 to 6.00 and the pIC50 (GPR3; [4]) was 4.52 to 6.00.

In the case of `CC(=O)N1CCc2nc(N3CCN(C(O)c4cocn4)CC3)c(-c3cnn(C)c3)nc2C1` (stereo not drawn) [Compound 523, 1-(2-{4-[hydroxy(1,3-oxazol-4-yl)methyl]-1-piperazinyl}-3-(1-methyl-4-pyrazolyl)-5,6,7,8-tetrahydro-1,4,6-triaza-6-naphthyl)-1-ethanone], the pIC50 (GPR6; [1]) was ≤ 4.52 and the pIC50 (GPR3; [2]) was ≤ 4.52.

For `CC(=O)N1CCc2nc(N3CCCC(Oc4ccccc4)C3)c(-c3cnn(C)c3)nc2C1` (stereo not drawn) [Compound 335, 1-[3-(1-methyl-1H-pyrazol-4-yl)-2-(3-phenoxypiperidin-1-yl)-5H,6H,7H,8H-pyrido[3,4-b]pyrazin-6-yl]ethan-1-one], the pIC50 (GPR6; procedure of Example 24) was ≤ 4.52 and the pIC50 (GPR3; procedure of Example 24) was 4.52 to 6.00.

`Cn1cc(-c2nc3cnc(C(O)C(C)(C)O)cc3nc2N2CCC(Oc3ccc(F)cc3F)CC2)cn1` (stereo not drawn) [Compound 263, 1-(2-(4-(2,4-difluorophenoxy)piperidin-1-yl)-3-(1-methyl-1H-pyrazol-4-yl)pyrido[3,4-b]pyrazin-7-yl)-2-methylpropane-1,2-diol] gave a pIC50 (GPR6; [3]) of 6.00 to 7.00 and a pIC50 (GPR3; [4]) of 4.52 to 6.00.

For `CCn1cc(-c2nc3c(nc2N2CCC(Oc4ccc(F)cc4F)CC2)CCN(C(=O)N(C)C)C3)cn1` [Compound 300, 2-[4-(2,4-difluorophenoxy)piperidin-1-yl]-3-(1-ethyl-1H-pyrazol-4-yl)-N,N-dimethyl-5H,6H,7H,8H-pyrido[3,4-b]pyrazine-6-carboxamide], the pIC50 (GPR6; procedure of Example 24) was > 7.00 and the pIC50 (GPR3; procedure of Example 24) was 4.52 to 6.00.

For `Cn1cc(-c2nc3cnc(N)cc3nc2N2CCC(Oc3ccc(F)cc3F)CC2)cn1` [Compound 277, 2-[4-(2,4-difluorophenoxy)piperidin-1-yl]-3-(1-methyl-1H-pyrazol-4-yl)pyrido[3,4-b]pyrazin-7-amine], the pIC50 (GPR6; procedure of Example 24) was 6.00 to 7.00 and the pIC50 (GPR3; procedure of Example 24) was 4.52 to 6.00.

With `CNCC(O)c1cc2nc(N3CCC(Oc4ccc(F)cc4F)CC3)c(-c3cnn(C)c3)nc2cn1` (stereo not drawn) [Compound 414, 1-{2-[4-(2,4-difluorophenoxy)piperidin-1-yl]-3-(1-methyl-1H-pyrazol-4-yl)pyrido[3,4-b]pyrazin-7-yl}-2-(methylamino)ethan-1-ol] the pIC50 (GPR6; [3]) was 6.00 to 7.00 and the pIC50 (GPR3; [4]) was 4.52 to 6.00.

For `CC(C)(O)[C@@H](O)c1cc2nc(N3CCC(=Cc4ccc(F)cc4F)CC3)c(-c3cnn(CF)c3)nc2cn1` (single isomer, unassigned) [Compound 785], the pIC50 (GPR6; procedure of Example 24) was > 7.00 and the pIC50 (GPR3; procedure of Example 24) was 4.52 to 6.00.

In the case of `Cn1cc(-c2nc3cc(C(C)(O)C(C)(C)O)ncc3nc2N2CCN(Cc3ccc(F)cc3F)CC2)cn1` (stereo not drawn) [Compound 604, 2-(3-{4-[(2,4-difluorophenyl)methyl]-1-piperazinyl}-2-(1-methyl-4-pyrazolyl)-1,4,6-triaza-7-naphthyl)-3-methyl-2,3-butanediol], the pIC50 (GPR6; [1]) was 6.00 to 7.00 and the pIC50 (GPR3; [2]) was 4.52 to 6.00.

With `CC(=O)N1CCc2nc(N3CCC(Oc4ccc(F)cc4F)CC3)c(-c3cnn(C4CNC4)c3)nc2C1` [Compound 134, 1-{3-[1-(azetidin-3-yl)-1H-pyrazol-4-yl]-2-[4-(2,4-difluorophenoxy)piperidin-1-yl]-5H,6H,7H,8H-pyrido[3,4-b]pyrazin-6-yl}ethan-1-one] the pIC50 (GPR6; [3]) was 4.52 to 6.00 and the pIC50 (GPR3; [4]) was 4.52 to 6.00.

With `CC(=O)N1CCc2nc(N3CCN(Cc4ccc(Cl)cc4F)CC3)c(-c3ccc(F)c(N)n3)nc2C1` [Compound 610, 1-[3-(6-amino-5-fluoro-2-pyridyl)-2-{4-[(4-chloro-2-fluorophenyl)methyl]-1-piperazinyl}-5,6,7,8-tetrahydro-1,4,6-triaza-6-naphthyl]-1-ethanone] the pIC50 (GPR6; procedure of Example 24) was > 7.00 and the pIC50 (GPR3; procedure of Example 24) was 4.52 to 6.00.

In the case of `CC(=O)N1CCc2nc(N3CCN(Cc4cccs4)CC3)c(-c3cnn(C)c3)nc2C1` [Compound 515, 1-[3-(1-methyl-4-pyrazolyl)-2-(4-thenyl-1-piperazinyl)-5,6,7,8-tetrahydro-1,4,6-triaza-6-naphthyl]-1-ethanone], the pIC50 (GPR6; [1]) was 4.52 to 6.00 and the pIC50 (GPR3; [2]) was 4.52 to 6.00.

`CN1CCc2nc(N3CCC(Oc4ccc(F)cc4F)CC3)c(-c3cn[nH]c3)nc2C1` [Compound 139, 4-(2,4-difluorophenoxy)-1-[6-methyl-3-(1H-pyrazol-4-yl)-5H,6H,7H,8H-pyrido[3,4-b]pyrazin-2-yl]piperidine] showed a pIC50 (GPR6; [3]) of 4.52 to 6.00 and a pIC50 (GPR3; [4]) of 4.52 to 6.00.

`CC(C)(O)C(C)(O)c1cc2nc(-c3cnn(C(F)F)c3)c(N3CCN(Cc4ccccc4F)CC3)nc2cn1` (single isomer, unassigned) [Compound 708] was tested, and the pIC50 (GPR6; procedure of Example 24) was 6.00 to 7.00 and the pIC50 (GPR3; procedure of Example 24) was 4.52 to 6.00.

For `CC(C)(O)C(=O)N1CCc2nc(N3CCC(Oc4ccc(F)cc4F)CC3)c(-c3cn[nH]c3)nc2C1` [Compound 175, 1-{2-[4-(2,4-difluorophenoxy)piperidin-1-yl]-3-(1H-pyrazol-4-yl)-5H,6H,7H,8H-pyrido[3,4-b]pyrazin-6-yl}-2-hydroxy-2-methylpropan-1-one], the pIC50 (GPR6; [3]) was 6.00 to 7.00 and the pIC50 (GPR3; [4]) was 4.52 to 6.00.

For `CCn1cc(-c2nc3cnc([C@@H](O)C(C)(C)O)cc3nc2N2CCC(Oc3ccc(F)cc3F)CC2)cn1` (single isomer, unassigned) [Compound 570], the pIC50 (GPR6; [1]) was > 7.00 and the pIC50 (GPR3; [2]) was 4.52 to 6.00.

For `Cn1cc(-c2nc3cnc(CO)cc3nc2N2CCN(Cc3ccc(F)cc3F)CC2)cn1` [Compound 194, (2-{4-[(2,4-difluorophenyl)methyl]piperazin-1-yl}-3-(1-methyl-1H-pyrazol-4-yl)pyrido[3,4-b]pyrazin-7-yl)methanol], the pIC50 (GPR6; [3]) was 6.00 to 7.00 and the pIC50 (GPR3; [4]) was 4.52 to 6.00.

`COc1cc2nc(N3CCC(Oc4ccc(F)cc4F)CC3)c(-c3cnn(C)c3)nc2cn1` [Compound 410, 2-(4-(2,4-difluorophenoxy)piperidin-1-yl)-7-methoxy-3-(1-methyl-1H-pyrazol-4-yl)pyrido[3,4-b]pyrazine] gave a pIC50 (GPR6; [3]) of 4.52 to 6.00 and a pIC50 (GPR3; [4]) of 4.52 to 6.00.

With `CC(=O)N1CCc2nc(N3CCC(C(=O)N(C)c4ccc(F)cc4F)C3)c(-c3cnn(C)c3)nc2C1` (stereo not drawn) [Compound 392, 1-[6-acetyl-3-(1-methyl-1H-pyrazol-4-yl)-5H,6H,7H,8H-pyrido[3,4-b]pyrazin-2-yl]-N-(2,4-difluorophenyl)-N-methylpyrrolidine-3-carboxamide] the pIC50 (GPR6; [3]) was ≤ 4.52 and the pIC50 (GPR3; [4]) was 4.52 to 6.00.

Compound `CC(=O)N1CCc2nc(N3CCC(Oc4ccc(F)cc4F)CC3)c(-c3cnn(CCF)c3)nc2C1` [Compound 16, 1-{2-[4-(2,4-difluorophenoxy)piperidin-1-yl]-3-[1-(2-fluoroethyl)-1H-pyrazol-4-yl]-5H,6H,7H,8H-pyrido[3,4-b]pyrazin-6-yl}ethan-1-one] has a pIC50 (GPR6; [5]) of 6.00 to 7.00 and a pIC50 (GPR3; [5]) of 4.52 to 6.00.

Compound `CCn1cc(-c2nc3c(nc2N2CCC(Oc4ccc(F)cc4F)CC2)CCN(C(=O)C2CC(F)(F)CN2)C3)cn1` (stereo not drawn) [Compound 481, (2-(4-(2,4-difluorophenoxy)piperidin-1-yl)-3-(1-ethyl-1H-pyrazol-4-yl)-7,8-dihydropyrido[3,4-b]pyrazin-6(5H)-yl)(4,4-difluoropyrrolidin-2-yl)methanone] has a pIC50 (GPR6; [3]) of 6.00 to 7.00 and a pIC50 (GPR3; [4]) of 4.52 to 6.00.

For `CC(=O)N1CCc2nc(N3CCN(Cc4ccccc4)CC3)c(-c3cnn(C)c3)nc2C1` [Compound 280, 1-[2-(4-benzylpiperazin-1-yl)-3-(1-methyl-1H-pyrazol-4-yl)-5H,6H,7H,8H-pyrido[3,4-b]pyrazin-6-yl]ethan-1-one], the pIC50 (GPR6; procedure of Example 24) was 4.52 to 6.00 and the pIC50 (GPR3; procedure of Example 24) was 4.52 to 6.00.

With `Cc1cc2nc(N3CCC(Oc4ccc(F)cc4F)CC3)c(-c3cnn(C)c3)nc2cn1` [Compound 228, 4-(2,4-difluorophenoxy)-1-[7-methyl-3-(1-methyl-1H-pyrazol-4-yl)pyrido[3,4-b]pyrazin-2-yl]piperidine] the pIC50 (GPR6; [3]) was 6.00 to 7.00 and the pIC50 (GPR3; [4]) was 4.52 to 6.00.

For `Cc1cncc2nc(-c3cnn(C)c3)c(N3CCC(Oc4ccc(F)cc4F)CC3)nc12` [Compound 480, 4-(2,4-difluorophenoxy)-1-[8-methyl-3-(1-methyl-1H-pyrazol-4-yl)pyrido[3,4-b]pyrazin-2-yl]piperidine], the pIC50 (GPR6; [3]) was 6.00 to 7.00 and the pIC50 (GPR3; [4]) was 4.52 to 6.00.

In the case of `Cn1cc(-c2nc3cnccc3nc2N2CCN(Cc3ccc(F)cc3F)C[C@H]2CO)cn1` (single isomer, unassigned) [Compound 292], the pIC50 (GPR6; procedure of Example 24) was ≤ 4.52 and the pIC50 (GPR3; procedure of Example 24) was 4.52 to 6.00.

In the case of `CC(=O)N1CCc2nc(N3CCC(Oc4ccc(F)cc4F)CC3)c(-c3cccc4nccn34)nc2C1` [Compound 129, 1-{2-[4-(2,4-difluorophenoxy)piperidin-1-yl]-3-{imidazo[1,2-a]pyridin-5-yl}-5H,6H,7H,8H-pyrido[3,4-b]pyrazin-6-yl}ethan-1-one], the pIC50 (GPR6; [3]) was 4.52 to 6.00 and the pIC50 (GPR3; [4]) was 4.52 to 6.00.

`Cn1cc(-c2nc3cnc(C[C@H](O)CO)cc3nc2N2CCC(Oc3ccc(F)cc3F)CC2)cn1` (single isomer, unassigned) [Compound 416] was tested, and the pIC50 (GPR6; [3]) was 6.00 to 7.00 and the pIC50 (GPR3; [4]) was 4.52 to 6.00.
